Measured values published in EP0998931A1, “REMEDIES FOR DRY EYE” (priority 1997, dated 1998).
Read-outs that look alike come from different tables or passages of the source.

System: TG-I m RNA
Test: Expression amounts of TG-I mRNA by RT-PCR in cultured corneal epithelial cells (G3PDH internal standard)
Type: cell-based, human
Conditions: for inhibition at 1 µM: read-out: inhibition (of TG-I m RNA expression)
Protocol: Glyceraldehyde-3-phosphoric acid dehydrogenase (G3PDH) was used as an internal standard in consideration of scatter of template total RNA amounts.
Cultured SV40 immortalized human corneal epithelial cells (1 × 10^6 cells) were cultured in a culture medium (DMEM/F12) containing a test compound under a condition of 37°C and 5% CO2 for 72 hours. After culturing, total RNA was extracted according to the AGPC method. Then, RT-PCR was carried out using a primer which is specific for TG-I m RNA or G3PDH m RNA using a Takara RNA-PCR kit (AMV). PCR products were electrophoresed on 1% agarose gel, and bands were detected with a transilluminator. Cells cultured in a culture medium containing no test compound in the same manner were used as a control.
The expression amounts of TG-I m RNA were calculated according to the following equation 1 so that an expression amount in the control was 100. Expression amount = (B/A) × 100 [formula] • A: A band area of a TG-I amplified fragment on the basis of a band area of a G3PDH amplified fragment in the control • B: A band area of a TG-I amplified fragment on the basis of a band area of a G3PDH amplified fragment in the presence of the test compound

Compound	inhibition of TG-I m RNA expression, dependence on concentration (10 nM, 100 nM and 1000 nM)	mrna remaining at 0.01 µM (Corneal epithelial cell, 10 nM test compound, 72 hours culture, SV40 immortalized human corneal epithelial cells, control = 100, read-out: Expression amount) [%]	mrna remaining at 0.1 µM (Corneal epithelial cell, 100 nM test compound, 72 hours culture, SV40 immortalized human corneal epithelial cells, control = 100, read-out: Expression amount) [%]	mrna remaining at 1 µM (Corneal epithelial cell, 1000 nM test compound, 72 hours culture, SV40 immortalized human corneal epithelial cells, control = 100, read-out: Expression amount) [%]	inhibition at 0.01 µM (Homo sapiens, Corneal epithelial cell, 72 h, concentration of 10 nM) [%]	mrna remaining at 0.01 µM (Homo sapiens, Corneal epithelial cell, 72 h, concentration of 10 nM, relative to control, read-out: expression amounts of TG-I m RNA in the corneal epithelial cells) [%]	inhibition at 0.1 µM (Homo sapiens, Corneal epithelial cell, 72 h, concentration of 100 nM) [%]	mrna remaining at 0.1 µM (Homo sapiens, Corneal epithelial cell, 72 h, concentration of 100 nM, relative to control, read-out: expression amounts of TG-I m RNA in the corneal epithelial cells) [%]	inhibition at 1 µM (Homo sapiens, Corneal epithelial cell, 72 h, concentration of 1000 nM) [%]	mrna remaining at 1 µM (Homo sapiens, Corneal epithelial cell, 72 h, concentration of 1000 nM, relative to control, read-out: expression amounts of TG-I m RNA in the corneal epithelial cells) [%]	mrna remaining at 1 µM (Homo sapiens, Corneal epithelial cell, 72 h, read-out: Expression amount) [%]	mrna remaining at 1 µM (Homo sapiens, Corneal epithelial cell, 72 h, read-out: expression amounts of TG-I m RNA in the corneal epithelial cells) [%]	inhibition at 1 µM (Homo sapiens, Corneal epithelial cell, 72 h) [%]	inhibitory effect relative to that of 1α , 24 (R)-dihydroxyvitamin D3 (comparative compound at 1000 nM)
C=C1/C(=C\C=C2/CCC[C@]3(C)[C@@H]([C@H](C)CC[C@@H](O)C(C)C)CC[C@@H]23)C[C@@H](O)C[C@@H]1O [1α , 24 (R)-Dihydroxyvitamin D3]	concentration-dependent inhibition was observed	66	39	22	34	66	61	39	78	22	–	–	–	–
C=C1/C(=C\C=C2/CCC[C@]3(C)[C@@H]([C@H](C)CCCC(C)(C)O)CC[C@@H]23)C[C@@H](O)C[C@@H]1O [1α , 25-Dihydroxyvitamin D3]	–	–	–	–	–	–	–	–	–	–	48	48	52	one tenth or less
